# Experimental data taken from patent US10167262B2, “Herbicidal substituted 3-arylpyrazoles” (FMC CORPORATION, priority 2014, dated 2019).
# Experiments:
# Type in all cases: in vivo
# [1] = system: barnyardgrass (Echinochloa crus-galli); assay: Test B flooded paddy test, plant response rating 0-100; settings: Flood, 250 g ai/ha; scale 0 to 100 (0 no effect, 100 complete control); 13 to 15 days
# Summary of the method: (§1)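 Flooded 3 cm over soil; compound into paddy water; depth kept constant. Greenhouse 13–15 d.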
# [2] = system: ducksalad (Heteranthera limosa); assay: as above; settings: Flood, 250 g ai/ha; scale 0 to 100 (0 no effect, 100 complete control); 13 to 15 days
# Summary of the method: as §1
# [3] = system: rice (Oryza sativa); assay: as above; settings: Flood, 250 g ai/ha; scale 0 to 100 (0 no effect, 100 complete control); 13 to 15 days
# Summary of the method: as §1
# [4] = system: sedge, umbrella (small-flower umbrella sedge, Cyperus difformis); assay: as above; settings: Flood, 250 g ai/ha; scale 0 to 100 (0 no effect, 100 complete control); 13 to 15 days
# Summary of the method: as §1
# [5] = system: canarygrass (Phalaris minor); assay: Test C postemergence greenhouse test, plant response rating 0-100; settings: for Plant response rating, Canarygrass: scale 0 to 100
# Summary of the method: (§2)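 Response is a visual 0–100 control rating taken 13 to 15 days post-treatment, with a dash marking no result. Plants ranged 2 to 18 cm when treated postemergence.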
# [6] = system: cocklebur (common cocklebur, Xanthium strumarium); assay: as above; settings: for Plant response rating, Cocklebur: scale 0 to 100
# Summary of the method: as §2
# [7] = system: deadnettle (henbit deadnettle, Lamium amplexicaule); assay: as above; settings: for Plant response rating, Deadnettle: scale 0 to 100
# Summary of the method: as §2
# [8] = system: downy bromegrass (Bromus tectorum); assay: as above; settings: for Plant response rating, Bromegrass, Downy: scale 0 to 100
# Summary of the method: as §2
# [9] = system: green foxtail (Setaria viridis); assay: as above; settings: for Plant response rating, Foxtail, Green: scale 0 to 100
# Summary of the method: as §2
# [10] = system: surinam grass (Brachiaria decumbens); assay: as above; settings: for Plant response rating, Surinam Grass: scale 0 to 100
# Summary of the method: as §2
# [11] = system: windgrass (Apera spica-venti); assay: as above; settings: for Plant response rating, Windgrass: scale 0 to 100
# Summary of the method: as §2
# [12] = system: winter barley (Hordeum vulgare); assay: as above; settings: for Plant response rating, Barley: scale 0 to 100
# Summary of the method: as §2
# [13] = system: woolly cupgrass (Eriochloa villosa); assay: as above; settings: for Plant response rating, Cupgrass, Woolly: scale 0 to 100
# Summary of the method: as §2
# [14] = system: barnyardgrass (Echinochloa crus-galli); assay: Test C pre-/postemergence greenhouse test, plant response rating 0-100
# Summary of the method: (§3)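 Greenhouse test. Preemergence: seed in loam:sand, sprayed with formulated chemical (solvent + surfactant). Postemergence: 1–4 leaf plants, 2–18 cm, peat-based potting medium. Hold 13–15 d; score visually, 0 (none) to 100 (complete control); dash = not tested.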
# [15] = system: oilseed rape (Brassica napus); assay: as above
# Summary of the method: as §3
# [16] = system: waterhemp (common waterhemp, Amaranthus rudis); assay: as above
# Summary of the method: as §3
# [17] = system: waterhemp_RES2, (ALS & HPPD resistant common waterhemp, Amaranthus rudis); assay: Test E postemergence greenhouse test, plant response rating 0-100; settings: scale 0 to 100
# Summary of the method: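 Resistant waterhemp biotypes grown in peat/vermiculite medium and treated postemergence at 2–18 cm height (1- to 4-leaf stage). Kept in greenhouse 14 to 21 days, then visually rated against untreated controls on a 0–100 scale (0 no effect, 100 complete control).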
# [18] = Postemergence, 250 g ai/ha, scale 0 to 100
# [19] = Postemergence, 500 g ai/ha, scale 0 to 100
compound,measurement,setting,value
Fc1ccc(NN=C(c2ccccc2)c2c[nH]nc2-c2cc(Cl)cc(Cl)c2)cc1 [Compound 35],"Plant response rating, Barnyardgrass",[1],0
same,"Plant response rating, Ducksalad",[2],0
same,"Plant response rating, Rice",[3],0
same,"Plant response rating, Sedge, Umbrella",[4],0
same,"Plant response rating (0 to 100), Canarygrass",[5]; 62 g ai/ha,0
same,"Plant response rating (0 to 100), Canarygrass",[5]; 125 g ai/ha,0
same,"Plant response rating, Canarygrass",[5]; 250 g ai/ha,0
same,"Plant response rating, Canarygrass",[5]; 500 g ai/ha,0
same,"Plant response rating (0 to 100), Cocklebur",[6]; 62 g ai/ha,60
same,"Plant response rating (0 to 100), Cocklebur",[6]; 125 g ai/ha,60
same,"Plant response rating, Cocklebur",[6]; 250 g ai/ha,75
same,"Plant response rating, Cocklebur",[6]; 500 g ai/ha,75
same,"Plant response rating (0 to 100), Deadnettle",[7]; 62 g ai/ha,0
same,"Plant response rating (0 to 100), Deadnettle",[7]; 125 g ai/ha,0
same,"Plant response rating, Deadnettle",[7]; 250 g ai/ha,0
same,"Plant response rating, Deadnettle",[7]; 500 g ai/ha,0
same,"Plant response rating (0 to 100), Bromegrass, Downy",[8]; 62 g ai/ha,0
same,"Plant response rating (0 to 100), Bromegrass, Downy",[8]; 125 g ai/ha,0
same,"Plant response rating, Bromegrass, Downy",[8]; 250 g ai/ha,0
same,"Plant response rating, Bromegrass, Downy",[8]; 500 g ai/ha,0
same,"Plant response rating (0 to 100), Foxtail, Green",[9]; 62 g ai/ha,0
same,"Plant response rating (0 to 100), Foxtail, Green",[9]; 125 g ai/ha,0
same,"Plant response rating, Foxtail, Green",[9]; 250 g ai/ha,0
same,"Plant response rating, Foxtail, Green",[9]; 500 g ai/ha,20
same,"Plant response rating (0 to 100), Surinam Grass",[10]; 62 g ai/ha,0
same,"Plant response rating (0 to 100), Surinam Grass",[10]; 125 g ai/ha,0
same,"Plant response rating, Surinam Grass",[10]; 250 g ai/ha,0
same,"Plant response rating, Surinam Grass",[10]; 500 g ai/ha,0
same,"Plant response rating (0 to 100), Windgrass",[11]; 62 g ai/ha,0
same,"Plant response rating (0 to 100), Windgrass",[11]; 125 g ai/ha,0
same,"Plant response rating, Windgrass",[11]; 250 g ai/ha,0
same,"Plant response rating, Windgrass",[11]; 500 g ai/ha,0
same,"Plant response rating (0 to 100), Barley",[12]; 62 g ai/ha,0
same,"Plant response rating (0 to 100), Barley",[12]; 125 g ai/ha,0
same,"Plant response rating, Barley",[12]; 250 g ai/ha,0
same,"Plant response rating, Barley",[12]; 500 g ai/ha,0
same,"Plant response rating (0 to 100), Cupgrass, Woolly",[13]; 62 g ai/ha,5
same,"Plant response rating (0 to 100), Cupgrass, Woolly",[13]; 125 g ai/ha,5
same,"Plant response rating, Cupgrass, Woolly",[13]; 250 g ai/ha,5
same,"Plant response rating, Cupgrass, Woolly",[13]; 500 g ai/ha,5
"COCC(=O)n1cc(C(=O)c2ccccc2)c(-c2cc(Cl)cc(Cl)c2)n1 [Compound 16, 1-[4-benzoyl-3-(3,5-dichlorophenyl)-1H-pyrazol-1-yl]-2-methoxyethanone]","Plant response rating, Barnyardgrass",[1],0
same,"Plant response rating, Ducksalad",[2],0
same,"Plant response rating, Rice",[3],0
same,"Plant response rating, Sedge, Umbrella",[4],0
same,"Plant response rating (0 to 100), Barnyardgrass","[14]; Postemergence, 62 g ai/ha",0
same,"Plant response rating, Barnyardgrass","[14]; Postemergence, 125 g ai/ha, scale 0 to 100",0
same,"Plant response rating, Barnyardgrass",[14]; [18],0
same,"Plant response rating, Barnyardgrass",[14]; [19],0
same,"Plant response rating, Barnyardgrass","[14]; Preemergence, 62 g ai/ha",0
same,"Plant response rating, Barnyardgrass","[14]; Preemergence, 125 g ai/ha",0
same,"Plant response rating, Barnyardgrass","[14]; Preemergence, 250 g ai/ha",0
same,"Plant response rating, Barnyardgrass","[14]; Preemergence, 500 g ai/ha",0
same,"Plant response rating (0 to 100), Oilseed Rape","[15]; Postemergence, 62 g ai/ha",50
same,"Plant response rating (0 to 100), Oilseed Rape","[15]; Postemergence, 125 g ai/ha",60
same,"Plant response rating, Oilseed Rape",[15]; [18],90
same,"Plant response rating, Oilseed Rape",[15]; [19],90
same,"Plant response rating, Oilseed Rape","[15]; Preemergence, 62 g ai/ha",0
same,"Plant response rating, Oilseed Rape","[15]; Preemergence, 125 g ai/ha",50
same,"Plant response rating, Oilseed Rape","[15]; Preemergence, 250 g ai/ha",100
same,"Plant response rating, Oilseed Rape","[15]; Preemergence, 500 g ai/ha",100
same,"Plant response rating (0 to 100), Waterhemp","[16]; Postemergence, 62 g ai/ha",90
same,"Plant response rating (0 to 100), Waterhemp","[16]; Postemergence, 125 g ai/ha",95
same,"Plant response rating, Waterhemp",[16]; [18],98
same,"Plant response rating, Waterhemp",[16]; [19],100
same,"Plant response rating, Waterhemp","[16]; Preemergence, 62 g ai/ha",100
same,"Plant response rating, Waterhemp","[16]; Preemergence, 125 g ai/ha",100
same,"Plant response rating, Waterhemp","[16]; Preemergence, 250 g ai/ha",100
same,"Plant response rating, Waterhemp","[16]; Preemergence, 500 g ai/ha",100
same,"Plant response rating, Waterhemp_RES2",[17]; 31 g ai/ha,95
same,"Plant response rating, Waterhemp_RES2",[17]; 62 g ai/ha,95
same,"Plant response rating, Waterhemp_RES2",[17]; 125 g ai/ha,75
same,"Plant response rating, Waterhemp_RES2",[17]; 250 g ai/ha,98
same,"Plant response rating, Waterhemp_RES2",[17]; 500 g ai/ha,100
